Measurements as given in patent US10993983B2, “Cyclic peptide epitopes and small-molecule mimics for inducing autophagy” (TRUSTEES OF TUFTS COLLEGE, priority 2016, dated 2021).
*1 amine or outer side, *2 acyl side, *3 side chain or, on linkers, in order; H or OH if unused. Where a SMILES comes first, the peptide text is derived from it. Bridges are numbered along the chain shown (N, C = ends). Where no end group is shown, it is not given here. [ ]: non-standard residue; d: D form. The star is where a group is joined. NH(CH2CH2O)2(CH2)6Cl = ClCCCCCCOCCOCCN*; oXylylene = c1ccc(C[*:2])c(C[*:1])c1; Suc = O=C(CCC(=O)[*:2])[*:1]; Carboxymethyl = O=C(O)C*; Pent4ynoyl = C#CCCC(=O)*

Assays:
[1] = tested on: HaLo-GFP-Mito+mCherry-DHFR HeLa cells; assay: Chloroalkane Penetration Assay (CAPA); type: in vitro ADME; conditions: flow cytometry
Source text: FIGS. 19A-19C. Chloroalkane Penetration Assay quantitates relative cytosolic access of exogenously added DD5-o. 19A. Schematic showing the experimental procedure of CAPA, which uses a HaloEnzyme-GFP-expressing HeLa cell line. […] For CAPA, cells are pre-treated with vehicle or peptide, washed, and chased with HTag-TAMRA. Cells treated with cell-penetrant molecules have had their Haloenzyme blocked, thus preventing the HTag-TAMRA from covalently labeling the cells. 19B. Representative images of cells after CAPA, showing Haloenzyme-GFP fluorescence, Halotag-TAMRA fluorescence and the overlay of the two. […] 19C. […]
The Chloroalkane Penetration Assay is described in detail in U.S. Provisional Application No. 62/424,955, filed Nov. […] Following this incubation period, the amount of unreacted Haloenzyme was measured by chasing with a Haloligand-bearing dye (here, Htag-TAMRA). The relative amount of red cellular fluorescence after this chase was then quantified by flow cytometry. […] We evaluated CAPA with HTag-cTMP, a small molecule previously used as a tool for cytosolic protein localization.^71 As quantitated by flow cytometry, we observed inhibition of the HTag-TAMRA signal when cells were pre-incubated with HTag-cTMP, and this inhibition was dose-dependent with respect to amount of the HTag-cTMP used in the pre-incubation step. […]

HeLa-htt103Q cells [2] = assay: Htt aggregate assay; type: cell-based
Method: Along with proteasomal degradation, autophagy is the major pathway by which aggregated proteins are removed from the cytoplasm.
HeLa-htt103Q cells were cultured as described previously.^60 For the Htt103Q aggregate assay, cells were fixed with 2% PFA in PBS and CFP-positive aggregates […] were counted via fluorescence microscopy by an observer blinded to experimental condition.

HeLa/GFP-LC3 cells = assay: GFP-LC3 puncta assay with and without bafilomycin A1; type: cell-based
Method: (§1) HeLa/GFP-LC3 cells generated as previously shown,^10 treated with peptides for 3 hour as described above. […] After 6 h, mice were sacrificed and fixed by perfusion with 4% PFA in PBS. Tissues were fixed in 4% PFA overnight, 15% sucrose for 4 hours, and 30% sucrose overnight before frozen sections were prepared and used for fluorescence microscopy analysis as described.^16 GFP-LC3 puncta were quantified per 2500 μm^2 of tissue. Animal experiments were approved by the UTSW Institutional Animal Care Use Committee and performed in accordance with institutional guidelines.

HeLa cells = assay: Autophagy induction judged by p62 and LC3 immunoblots together; type: cell-based; conditions: HeLa cells; for concentration at which autophagy induction (p62 degradation and LC3 lipidation) was observed: immunoblot, 3 hour treatment
How it was run: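 HeLa cells exposed to peptide (acetyl N-cap, C-terminal amide) for 3 h in acidified OPTI-MEM, then lysed and immunoblotted for p62 and LC3. Activity is the lowest concentration giving both p62 degradation and LC3-I to LC3-II conversion, scored semi-quantitatively.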

GFP-LC3 transgenic mice [3] = assay: GFP-LC3 puncta in muscle tissue of GFP-LC3 transgenic mice; type: in vivo; conditions: for autophagy induction in vivo (GFP-LC3 puncta in muscle), result in words: i.p. injection, muscle tissue after 6 hours, Tat-11mer 15 mg/kg, D-(Tat-11mer) 15 mg/kg, DD5-o 15, 30 mg/kg
Method: To show whether Tat-11mer and DD5-o have similar in vivo activity, we tested their ability to induce autophagy in GFP-LC3 transgenic mice^59 as described.^10 Peptides were delivered via intraperitoneal injection, and after 6 hours, muscle tissue was collected. GFP-LC3 puncta were imaged in thin sections and counted by an observer blinded to experimental condition (FIG. 10, a,b).
as §1

GFP-LC3 transgenic mice [4] = conditions: background; 20 mg/kg; cited from earlier work
[5] = background; cited from earlier work
HeLa-htt103Q cells [6] = conditions: 20 μM; previously shown; cited from earlier work

Compound: CC[C@H](C)[C@H](NC(=O)[C@H](Cc1c[nH]cn1)NC(=O)[C@H](Cc1ccccc1)NC(=O)[C@@H](CSCC(=O)O)NC(=O)[C@H](C)NC(=O)[C@H](CC(N)=O)NC(=O)[C@@H](CSCC(=O)O)NC(=O)[C@@H](NC(=O)CCC(=O)NCCOCCOCCCCCCCl)C(C)C)C(=O)N[C@@H](Cc1c[nH]c2ccccc12)C(=O)N[C@@H](Cc1c[nH]cn1)C(N)=O [HTag-DD5-neg, (HTag)-VcNAcFHIWH] ({NH(CH2CH2O)2(CH2)6Cl-Suc}-V[dC](Carboxymethyl)NA[dC](Carboxymethyl)FHIWH-NH2)
- inhibition of HTag-TAMRA fluorescence (cytosolic access), result in words [1]: little inhibition of HTag-TAMRA fluorescence

Compound: CC[C@H](C)[C@H](NC(=O)[C@H](Cc1c[nH]cn1)NC(=O)[C@H](Cc1ccccc1)NC(=O)[C@H]1CSCc2ccccc2CSC[C@@H](NC(=O)[C@@H](NC(=O)CCC(=O)NCCOCCOCCCCCCCl)C(C)C)C(=O)N[C@@H](CC(N)=O)C(=O)N[C@@H](C)C(=O)N1)C(=O)N[C@@H](Cc1c[nH]c2ccccc12)C(=O)N[C@@H](Cc1c[nH]cn1)C(N)=O [HTag-DD5-o, (HTag)-VcNAcFHIWH] ({NH(CH2CH2O)2(CH2)6Cl-Suc}-V[dC]NA[dC]FHIWH-NH2; linker 2-5 via oXylylene)
- inhibition of HTag-TAMRA fluorescence (cytosolic access), result in words [1]: dose-dependent suppression of the HTag-TAMRA signal

Compound: Tat-11mer: eleven residues derived from Beclin 1, with a Gly-Gly linker and Tat sequence of the N-terminus (SEQ ID NO: 63) (Ac-YGRKKRRQRRRGGVWNATFHIWHD-NH2)
- percentage of cells with small htt103Q aggregates and number of small aggregates per cell (HeLa-htt103Q cells [2]; 10 μM): significant decrease
- fold more potent activation of autophagy (GFP-LC3 puncta) (HeLa/GFP-LC3 cells; activity at 10 μM similar to DD5-o at 40 μM): roughly 4 fold
- concentration at which autophagy induction (p62 degradation and LC3 lipidation) was observed (HeLa cells): 5 µM
- in vivo potency relative to full-length Tat-Beclin 1 (GFP-LC3 transgenic mice [3]; equimolar doses): 2- to 4 fold
- autophagy induction in vivo (GFP-LC3 puncta in muscle), result in words (GFP-LC3 transgenic mice [3]): largest increase in autophagosome formation

Compound: (pa)-VcNAcFHIWH (Pent4ynoyl-V[dC]NA[dC]FHIWH; linker 2-5 via ortho‑xylene (inferred); not fully specified (C-terminus); printed as (pa)-VcNAcFHIWH) [LL5-o, ortho-xylene linker; stereoisomer with two L-cysteines, negative control]
- clearance of htt103Q aggregates by control peptides (HeLa-htt103Q cells [2]; equimolar concentrations): no significant clearance of aggregates
- autophagy induction in vivo (GFP-LC3 puncta in muscle), result in words (GFP-LC3 transgenic mice [3]): no effect

Compound: YGRKKRRQRRRGGTNVFNATFEIWHDGEFGT [Tat-Beclin 1]
- activity in htt103Q aggregate assay (HeLa-htt103Q cells [2]; 12.5 μM): no activity
- autophagy induction in mice, result in words (GFP-LC3 transgenic mice [4]): induces autophagy when administered to mice at 20 mg/kg
- concentration at which autophagic flux is significantly increased in cell culture [5]: 10 µM
- concentration at which autophagy induction (p62 degradation and LC3 lipidation) was observed (HeLa cells): 10 µM
- number of small and large htt103Q aggregates (HeLa-htt103Q cells [6]): decrease the number of small, but not large, htt103Q aggregates

Compound: C#CCCC(=O)N[C@H](C(=O)N[C@@H]1CSCc2ccccc2CSC[C@H](C(=O)N[C@@H](Cc2ccccc2)C(=O)N[C@@H](Cc2cnc[nH]2)C(=O)N[C@H](C(=O)N[C@@H](Cc2c[nH]c3ccccc23)C(=O)N[C@@H](Cc2cnc[nH]2)C(N)=O)[C@@H](C)CC)NC(=O)[C@H](C)NC(=O)[C@H](CC(N)=O)NC1=O)C(C)C [DD5-o, (pa)-VcNAcFHIWH] (Pent4ynoyl-V[dC]NA[dC]FHIWH-NH2; linker 2-5 via oXylylene)
- percentage of cells with small htt103Q aggregates and number of small aggregates per cell (HeLa-htt103Q cells [2]; 20 μM): significant decrease
- concentration at which autophagy was induced (GFP-LC3 puncta) (HeLa/GFP-LC3 cells; 3 hours in serum-free media): 10 µM
- concentration at which autophagy induction (p62 degradation and LC3 lipidation) was observed (HeLa cells): 20 µM
- autophagy induction, result in words (HeLa cells; p62 and LC3 immunoblots): nearly equal potency
- autophagy induction in vivo (GFP-LC3 puncta in muscle), result in words (GFP-LC3 transgenic mice [3]): induced autophagy at 15 and 30 mg/kg in a dose-dependent manner
